Tests used:
Format in all cases: in vivo
Alternaria solani = Alternaria solani / tomato / preventative (Alternaria on tomato); settings: tomato plants cv. Roter Gnom, inoculated two days after application, vs untreated control, read-out: disease control
Summary of the method: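 Four-week-old tomato plants cv. Roter Gnom sprayed preventatively with formulated compound, then spore-inoculated two days later. Kept at 22/18° C. (day/night), 95% rh in greenhouse.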

[1] = tested on: Botryotinia fuckeliana (Botrytis cinerea); assay: Botryotinia fuckeliana (Botrytis cinerea) / tomato / preventative (Botrytis on tomato); settings: tomato plants cv. Roter Gnom, inoculated two days after application, vs untreated control, read-out: disease control
Method: Botryotinia fuckeliana (Botrytis cinerea)/Tomato/Preventative (Botrytis on Tomato) 4-week old tomato plants cv. Roter Gnom are treated with the formulated test compound in a spray chamber. The test plants are inoculated by spraying them with a spore suspension two days after application. The inoculated test plants are incubated at 20° C. and 95% rh in a greenhouse and the percentage leaf area covered by disease is assessed when an appropriate level of disease appears on untreated check plants (5-6 days after application).

[2] = tested on: Erysiphe necator (Uncinula necator); assay: Erysiphe necator (Uncinula necator) / grape / preventative (powdery mildew on grape); settings: grape seedlings cv. Gutedel, inoculated 1 day after application, vs untreated control, read-out: disease control
Method: Erysiphe necator (Uncinula necator)/Grape/Preventative (Powdery Mildew on Grape) 5-week old grape seedlings cv. Gutedel are treated with the formulated test compound in a spray chamber. The test plants are inoculated by shaking plants infected with grape powdery mildew above them 1 day after application. The inoculated test plants are incubated at 24/22° C. (day/night) and 70% rh under a light regime of 14/10 h (light/dark) and the percentage leaf area covered by disease is assessed when an appropriate level of disease appears on untreated check plants (7-9 days after application).

[3] = tested on: Mycosphaerella arachidis (Cercospora arachidicola); assay: Mycosphaerella arachidis (Cercospora arachidicola) / peanut / preventative; settings: peanut plants cv. Georgia Green, inoculated one day after application, vs untreated control, read-out: disease control
Method: Mycosphaerella arachidis (Cercospora arachidicola)/Peanut/Preventative 3-week old peanut plants cv. Georgia Green are treated with the formulated test compound in a spray chamber. The test plants are inoculated by spraying them with a spore suspension on their lower leaf surface one day after application. After an incubation period of 4 days under a plastic hood at 23° C. and 100% rh, the test plants are kept at 23° C./20° C. (day/night) and 70% rh in a greenhouse. The percentage leaf area covered by disease is assessed when an appropriate level of disease appears on untreated check plants (12-14 days after application).

Phytophthora infestans = assay: whole plant or invertebrate; settings: in Solanum tuberosum, read-out: disease control
Plasmopara viticola = Plasmopara viticola / grape / preventative (grape downy mildew); settings: grape seedlings cv. Gutedel, inoculated one day after application, vs untreated control, read-out: disease control
[4] = tested on: Pyrenophora teres (Helminthosporium teres); assay: Pyrenophora teres (Helminthosporium teres) / barley / preventative (net blotch on barley); settings: barley plants cv. Regina, inoculated 2 days after application, vs untreated control, read-out: disease control
Summary of the method: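 One-week-old barley cv. Regina was sprayed with formulated compound, then spore-inoculated 2 days later and kept at 20° C, 95% rh.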

[5] = tested on: Mycosphaerella graminicola (Septoria tritici); assay: Mycosphaerella graminicola (Septoria tritici) / wheat / preventative (Septoria tritici leaf spot on wheat); settings: Zymoseptoria tritici, wheat plants cv. Riband, inoculated one day after application, vs untreated control, read-out: disease control
Method: Mycosphaerella graminicola (Septoria tritici)/Wheat/Preventative (Septoria tritici Leaf Spot on Wheat) 2-week old wheat plants cv. Riband are treated with the formulated test compound in a spray chamber. The test plants are inoculated by spraying a spore suspension on them one day after application. After an incubation period of 1 day at 22° C./21° C. (day/night) and 95% rh, the test plants are kept at 22° C./21° C. (day/night) and 70% rh in a greenhouse. The percentage leaf area covered by disease is assessed when an appropriate level of disease appears on untreated check plants (16-19 days after application).

Measured: pest or weed control at 200 ppm

Cc1cc(F)ccc1-c1cccc(-c2ncc3ccccc3n2)n1 [2/55]
not listed: [5]
≥ 80%: all other assays above

Cc1ccc(-c2ncc3ccccc3n2)nc1-c1ccccc1 [3/71]
not listed: [2] | [3]
≥ 80%: all other assays above

Cc1cccc(-c2nc(-c3ncc4ccccc4n3)ccc2C)c1 [3/75]
not listed: [4]
≥ 80%: all other assays above

Cc1ccccc1-c1nc(-c2ncc3ccccc3n2)ccc1C [3/76]
not listed: [2]
≥ 80%: all other assays above

Cc1ccc(-c2ncc3ccccc3n2)nc1-c1cccc(F)c1 [3/77]
≥ 80%: Alternaria solani | [5] | Phytophthora infestans | Plasmopara viticola

Cc1cc(-c2nc(-c3ncc4ccccc4n3)ccc2C)ccc1F [3/85]
≥ 80%: all assays above

Cc1ccc(-c2ncc3ccccc3n2)nc1-c1cc(F)cc(F)c1 [3/90]
≥ 80%: all assays above

COc1ccc(-c2nc(-c3ncc4ccccc4n3)ccc2C)cc1F [3/92, 2-[6-(3-fluoro-4-methoxy-phenyl)-5-methylpyridin-2-yl]-quinazoline]
≥ 80%: all assays above

Cc1ccc(-c2ncc3ccccc3n2)nc1Oc1ccccc1 [5/18]
≥ 80%: Alternaria solani | [1] | Phytophthora infestans | Plasmopara viticola | [4]

c1ccc(Cc2cccc(-c3ncc4ccccc4n3)n2)cc1 [6/17, 2-(6-benzylpyridin-2-yl)-quinazoline]
not listed: [5]
≥ 80%: all other assays above

Cc1ccc(-c2ncc3ccccc3n2)nc1Cc1ccccc1 [7/17]
≥ 80%: Alternaria solani | [3] | [5] | Phytophthora infestans

— patent US20120129875A1, “SUBSTITUTED QUINAZOLINES AS FUNGICIDES” (SYNGENTA CROP PROTECTION, LLC, priority 2009, published 2012)
